{"source": "PubChem BioAssay AID2060616", "about": "(Molecular Pharmacology Branch, DTP, NCI, 2025)", "test_system": "377384-186-R-J1-PDC complex spheroid viability", "test": "Anticancer human tumor 377384-186-R-J1-PDC patient-derived pancreatic carcinoma cell line growth inhibition [CLK]", "conditions": "for IC50: curve of first compound; for viability, T/C: stronger effect = lower value", "how_it_was_run": "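Patient-derived tumor cells grown as complex spheroids with HUVEC endothelial cells and mesenchymal stem cells, treated with drug combinations. Concentrations descend in half-log steps from near clinical Cmax, or from 10 microM if Cmax unknown.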", "key": {"[1]": {"conditions": "second compound 0.0316 µM, first compound 0.0316 µM"}, "[2]": {"conditions": "second compound 0.0316 µM, first compound 0.1 µM"}, "[3]": {"conditions": "second compound 0.0316 µM, first compound 0.316 µM"}, "[4]": {"conditions": "second compound 0.0316 µM, first compound 1 µM"}, "[5]": {"conditions": "second compound 0.0316 µM, first compound 3.16 µM"}, "[6]": {"conditions": "second compound 0.0316 µM, first compound 10 µM"}, "[7]": {"conditions": "second compound 0.1 µM, first compound 0.0316 µM"}, "[8]": {"conditions": "second compound 0.1 µM, first compound 0.1 µM"}, "[9]": {"conditions": "second compound 0.1 µM, first compound 0.316 µM"}, "[10]": {"conditions": "second compound 0.1 µM, first compound 1 µM"}, "[11]": {"conditions": "second compound 0.1 µM, first compound 3.16 µM"}, "[12]": {"conditions": "second compound 0.1 µM, first compound 10 µM"}, "[13]": {"conditions": "second compound 0.316 µM, first compound 0.0316 µM"}, "[14]": {"conditions": "second compound 0.316 µM, first compound 0.1 µM"}, "[15]": {"conditions": "second compound 0.316 µM, first compound 0.316 µM"}, "[16]": {"conditions": "second compound 0.316 µM, first compound 1 µM"}, "[17]": {"conditions": "second compound 0.316 µM, first compound 3.16 µM"}, "[18]": {"conditions": "second compound 0.316 µM, first compound 10 µM"}, "[19]": {"conditions": "second compound 1 µM, first compound 0.0316 µM"}, "[20]": {"conditions": "second compound 1 µM, first compound 0.1 µM"}, "[21]": {"conditions": "second compound 1 µM, first compound 0.316 µM"}, "[22]": {"conditions": "second compound 1 µM, first compound 1 µM"}, "[23]": {"conditions": "second compound 1 µM, first compound 3.16 µM"}, "[24]": {"conditions": "second compound 1 µM, first compound 10 µM"}, "[25]": {"conditions": "second compound 3.16 µM, first compound 0.0316 µM"}, "[26]": {"conditions": "second compound 3.16 µM, first compound 0.1 µM"}, "[27]": {"conditions": "second compound 3.16 µM, first compound 0.316 µM"}, "[28]": {"conditions": "second compound 3.16 µM, first compound 1 µM"}, "[29]": {"conditions": "second compound 3.16 µM, first compound 3.16 µM"}, "[30]": {"conditions": "second compound 3.16 µM, first compound 10 µM"}, "[31]": {"conditions": "second compound 10 µM, first compound 0.0316 µM"}, "[32]": {"conditions": "second compound 10 µM, first compound 0.1 µM"}, "[33]": {"conditions": "second compound 10 µM, first compound 0.316 µM"}, "[34]": {"conditions": "second compound 10 µM, first compound 1 µM"}, "[35]": {"conditions": "second compound 10 µM, first compound 3.16 µM"}, "[36]": {"conditions": "second compound 10 µM, first compound 10 µM"}}}
{"compound": "C#Cc1c(F)ccc2cc(O)cc(-c3ncc4c(N5CC6CCC(C5)N6)nc(OCC56CCCN5CC(F)C6)nc4c3F)c12", "note": "(centres undefined) + CNC(=O)c1ccc(Nc2nc(OC3CCCC3)c3c(-c4ccc5nc(C)oc5c4)c[nH]c3n2)c(OC)c1;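 note: spheroids exposed to agents for 7 days before reading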;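 for viability, T/C: luminescence signal used as a stand-in for viable cells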", "values": [{"measurement": "IC50", "setting": "second compound 0.0316 µM", "value": "< 31.6", "unit": "nM"}, {"measurement": "IC50", "setting": "second compound 0.1 µM", "value": "< 31.6", "unit": "nM"}, {"measurement": "IC50", "setting": "second compound 0.316 µM", "value": "< 31.6", "unit": "nM"}, {"measurement": "IC50", "setting": "second compound 1 µM", "value": "< 31.6", "unit": "nM"}, {"measurement": "IC50", "setting": "second compound 3.16 µM", "value": "< 31.6", "unit": "nM"}, {"measurement": "IC50", "setting": "second compound 10 µM", "value": "< 31.6", "unit": "nM"}, {"measurement": "viability, T/C", "setting": "[1]", "value": 23.6, "unit": "%"}, {"measurement": "viability, T/C", "setting": "[2]", "value": 11.7, "unit": "%"}, {"measurement": "viability, T/C", "setting": "[3]", "value": 5.37, "unit": "%"}, {"measurement": "viability, T/C", "setting": "[4]", "value": 4.27, "unit": "%"}, {"measurement": "viability, T/C", "setting": "[5]", "value": 2.38, "unit": "%"}, {"measurement": "viability, T/C", "setting": "[6]", "value": 1.98, "unit": "%"}, {"measurement": "viability, T/C", "setting": "[7]", "value": 22, "unit": "%"}, {"measurement": "viability, T/C", "setting": "[8]", "value": 8.53, "unit": "%"}, {"measurement": "viability, T/C", "setting": "[9]", "value": 5.17, "unit": "%"}, {"measurement": "viability, T/C", "setting": "[10]", "value": 2.73, "unit": "%"}, {"measurement": "viability, T/C", "setting": "[11]", "value": 2.7, "unit": "%"}, {"measurement": "viability, T/C", "setting": "[12]", "value": 2.19, "unit": "%"}, {"measurement": "viability, T/C", "setting": "[13]", "value": 7.28, "unit": "%"}, {"measurement": "viability, T/C", "setting": "[14]", "value": 4.75, "unit": "%"}, {"measurement": "viability, T/C", "setting": "[15]", "value": 3.08, "unit": "%"}, {"measurement": "viability, T/C", "setting": "[16]", "value": 2.69, "unit": "%"}, {"measurement": "viability, T/C", "setting": "[17]", "value": 2.74, "unit": "%"}, {"measurement": "viability, T/C", "setting": "[18]", "value": 2.17, "unit": "%"}, {"measurement": "viability, T/C", "setting": "[19]", "value": 6.44, "unit": "%"}, {"measurement": "viability, T/C", "setting": "[20]", "value": 3.72, "unit": "%"}, {"measurement": "viability, T/C", "setting": "[21]", "value": 2.21, "unit": "%"}, {"measurement": "viability, T/C", "setting": "[22]", "value": 1.64, "unit": "%"}, {"measurement": "viability, T/C", "setting": "[23]", "value": 1.66, "unit": "%"}, {"measurement": "viability, T/C", "setting": "[24]", "value": 1.12, "unit": "%"}, {"measurement": "viability, T/C", "setting": "[25]", "value": 4.56, "unit": "%"}, {"measurement": "viability, T/C", "setting": "[26]", "value": 3.31, "unit": "%"}, {"measurement": "viability, T/C", "setting": "[27]", "value": 2.47, "unit": "%"}, {"measurement": "viability, T/C", "setting": "[28]", "value": 2.25, "unit": "%"}, {"measurement": "viability, T/C", "setting": "[29]", "value": 1.64, "unit": "%"}, {"measurement": "viability, T/C", "setting": "[30]", "value": 1.59, "unit": "%"}, {"measurement": "viability, T/C", "setting": "[31]", "value": 4.62, "unit": "%"}, {"measurement": "viability, T/C", "setting": "[32]", "value": 2.7, "unit": "%"}, {"measurement": "viability, T/C", "setting": "[33]", "value": 2.29, "unit": "%"}, {"measurement": "viability, T/C", "setting": "[34]", "value": 1.95, "unit": "%"}, {"measurement": "viability, T/C", "setting": "[35]", "value": 1.6, "unit": "%"}, {"measurement": "viability, T/C", "setting": "[36]", "value": 2.24, "unit": "%"}]}
{"compound": "C=C(F)C(=O)N1CCN(c2nc(OCC3CCCN3C)nc3c2CCN(c2cccc4cccc(Cl)c24)C3)CC1CC#N", "note": "(centres undefined) + CNC(=O)c1ccc(Nc2nc(OC3CCCC3)c3c(-c4ccc5nc(C)oc5c4)c[nH]c3n2)c(OC)c1", "values": [{"measurement": "IC50", "setting": "second compound 0.0316 µM", "value": 2060, "unit": "nM"}, {"measurement": "IC50", "setting": "second compound 0.1 µM", "value": 145, "unit": "nM"}, {"measurement": "IC50", "setting": "second compound 0.316 µM", "value": "< 31.6", "unit": "nM"}, {"measurement": "IC50", "setting": "second compound 1 µM", "value": "< 31.6", "unit": "nM"}, {"measurement": "IC50", "setting": "second compound 3.16 µM", "value": "< 31.6", "unit": "nM"}, {"measurement": "IC50", "setting": "second compound 10 µM", "value": "< 31.6", "unit": "nM"}, {"measurement": "viability, T/C", "setting": "[1]", "value": 99.6, "unit": "%"}, {"measurement": "viability, T/C", "setting": "[2]", "value": 93.8, "unit": "%"}, {"measurement": "viability, T/C", "setting": "[3]", "value": 102, "unit": "%"}, {"measurement": "viability, T/C", "setting": "[4]", "value": 96.6, "unit": "%"}, {"measurement": "viability, T/C", "setting": "[5]", "value": 22.3, "unit": "%"}, {"measurement": "viability, T/C", "setting": "[6]", "value": 0.88, "unit": "%"}, {"measurement": "viability, T/C", "setting": "[7]", "value": 54.3, "unit": "%"}, {"measurement": "viability, T/C", "setting": "[8]", "value": 50.9, "unit": "%"}, {"measurement": "viability, T/C", "setting": "[9]", "value": 45.7, "unit": "%"}, {"measurement": "viability, T/C", "setting": "[10]", "value": 40.4, "unit": "%"}, {"measurement": "viability, T/C", "setting": "[11]", "value": 23.1, "unit": "%"}, {"measurement": "viability, T/C", "setting": "[12]", "value": 0.37, "unit": "%"}, {"measurement": "viability, T/C", "setting": "[13]", "value": 21.2, "unit": "%"}, {"measurement": "viability, T/C", "setting": "[14]", "value": 22.8, "unit": "%"}, {"measurement": "viability, T/C", "setting": "[15]", "value": 20.7, "unit": "%"}, {"measurement": "viability, T/C", "setting": "[16]", "value": 22.1, "unit": "%"}, {"measurement": "viability, T/C", "setting": "[17]", "value": 12, "unit": "%"}, {"measurement": "viability, T/C", "setting": "[18]", "value": 0.26, "unit": "%"}, {"measurement": "viability, T/C", "setting": "[19]", "value": 19.5, "unit": "%"}, {"measurement": "viability, T/C", "setting": "[20]", "value": 19.3, "unit": "%"}, {"measurement": "viability, T/C", "setting": "[21]", "value": 19, "unit": "%"}, {"measurement": "viability, T/C", "setting": "[22]", "value": 17.9, "unit": "%"}, {"measurement": "viability, T/C", "setting": "[23]", "value": 11.1, "unit": "%"}, {"measurement": "viability, T/C", "setting": "[24]", "value": 0.2, "unit": "%"}, {"measurement": "viability, T/C", "setting": "[25]", "value": 20.5, "unit": "%"}, {"measurement": "viability, T/C", "setting": "[26]", "value": 20.9, "unit": "%"}, {"measurement": "viability, T/C", "setting": "[27]", "value": 18.3, "unit": "%"}, {"measurement": "viability, T/C", "setting": "[28]", "value": 20.3, "unit": "%"}, {"measurement": "viability, T/C", "setting": "[29]", "value": 8.66, "unit": "%"}, {"measurement": "viability, T/C", "setting": "[30]", "value": 0.22, "unit": "%"}, {"measurement": "viability, T/C", "setting": "[31]", "value": 20.6, "unit": "%"}, {"measurement": "viability, T/C", "setting": "[32]", "value": 21.4, "unit": "%"}, {"measurement": "viability, T/C", "setting": "[33]", "value": 21.9, "unit": "%"}, {"measurement": "viability, T/C", "setting": "[34]", "value": 17.1, "unit": "%"}, {"measurement": "viability, T/C", "setting": "[35]", "value": 8.61, "unit": "%"}, {"measurement": "viability, T/C", "setting": "[36]", "value": 0.3, "unit": "%"}]}
